The source of these data is patent publication US7794760B2, “Herbal mixture extract of Pleurotus eryngii, Acanthopanacis Cortex and Notoginseng Radix and a composition comprising the same for prevention and treatment of periodontitis” (Oscotec Inc., priority 2005, dated 2010).

This assay relates to OPG (osteoprotegerin). Briefly: OPG (osteoprotegerin) expression in MG-63 cells, OPG ELISA of supernatant. Conditions: positive control, 20 mM. It counts as cell-based, human. How it is done:
The following three types of cells were used to investigate the effect of the herbal mixture extract or each independent herbal extract of the present invention on the proliferation of osteoblasts. A human osteosarcoma derived cell line MG-63 (ATCC No, CRL-1427) and a mouse muscle derived cell line C2C12 (ATCC No. CRL-1772) were distributed from American Type Culture Collection (ATCC, USA). The cells were cultured in DMEM (Gibco, BRL, USA) supplemented with 10% FBS (fetal bovine serum) in a 37° C. 5% CO2 incubator with 100% humidity.
MG-63 cell culture medium having approximately at the density of 10^6 cells/20 ml was removed from 100 mm cell culture dish. The dish was washed with 5 ml of DPBS (Dulbeco's modified phosphate buffered saline). The buffer was removed and 0.5 ml of trypsin-EDTA was spread on the culture dish, which stood in a CO2 incubator for one minute to take the cells off. The cells were put in 5 ml of DMEM supplemented with 10% FBS and mixed well. […] The numbers of cells were counted by haemacytometer and then distributed into a96-well plate at the concentration of 10^4 cells/well. […]
To increase reliability of the test results, positive control was treated with 20 mM CaCl2 to induce 2˜5 fold higher expression of OPG than in negative control. […] OPG ELISA kit (OCT) was used and optical density was measured at 450 nm. […]
Background: An ELISA detects its analyte on a solid surface through an enzyme-linked reagent.

For `[Ca+2].[Cl-].[Cl-]` [CaCl2], the “expression of OPG versus negative control” value is given as 2˜5 fold.
